Test results as given in patent US20220387405A1, “METHODS OF TREATMENT WITH N-((R)-1-(3-CHLOROPYRIDIN-2-YL)-2,2,2-TRIFLUOROETHYL)-2-((S)-2,6-DIOXOPIPERIDIN-3-YL)-1-OXOISOINDOLINE-5-CARBOXAMIDE” (CELGENE CORPORATION, priority 2021, published 2022).
pIC50: −log10 of the molar value.

What was measured:
[1] = test system: blasts in TP53 WT AML samples; assay: 5-day liquid culture of AML patient BM cells; format: cell-based, human
[2] = test system: CD34+ cells from BM samples of TP53 WT AML donors; assay: Liquid culture of CD34+ cells from TP53 WT AML donors (FACS); format: cell-based, human
Description: CD34^+ cells isolated from BM samples of 3 TP53 WT AML donors and 3 healthy donors were treated with increasing concentrations of Compound 1 in liquid culture at times ranging from 4 hours to 5 days. […] Acute myeloid leukemia blasts sustained CK1α degradation up to 5 days in culture as assessed by fluorescence-activated cell sorting (FACS) analysis. Strikingly, p53 stabilization was sustained longer in leukemic cells (up to 48 hours) compared with normal BM cells (for 24 hours).

[3] = Cardiovascular assessment (ECG, heart rate) in conscious cynomolgus monkeys; format: in vivo; conditions: oral gavage, 0.03-0.3 mg/kg, Regimens 1 and 2, 1 hour postdose
Description: Cardiovascular assessments (electrocardiograms [ECGs] and heart rates) were conducted in conscious cynomolgus monkeys as part of the Good Laboratory Practice (GLP)-compliant repeat dose toxicity study. In this study, Compound 1 was administered by oral gavage to Cynomolgus monkeys (5/sex/group) in Groups 1-5 at doses of 0 (0.5% (w/v) Methylcellulose, 0.25% (v/v) Tween 80 in 50 mM citrate buffer pH 3), 0.03, 0.1, 0.1 and 0.3 mg/kg, respectively, intermittently using 2 different dosing regimens. Groups 2 and 3 animals were dosed for 7 consecutive days in each 4-week cycle for 2 cycles (Regimen 1: on Days 1-7 and 29-35), whereas Groups 4 and 5 animals were dosed twice weekly for 4 weeks (Regimen 2: on Days 1, 4, 8, 11, 15, 18, 22 and 25). A combination of both dosing regimens (Days 1-7, 8, 11, 15, 18, 22, 25, and 29-35) was used for administration of the vehicle to the control animals. […] Qualitative (visual inspection) and quantitative assessments including heart rates and PR, QRS, RR, QT, and QTc intervals were performed. QTc was calculated using Bazett's formula.

[4] = target: T1, cloned hERG potassium channel expressed in the HEK-293 cell line (Homo sapiens, UniProt Q12809); assay: hERG IonWorks Barracuda patch clamp electrophysiology assay; format: cell-based
T1 construct: expressed in transfected cells; host or cells: HEK-293
Description: The effect of Compound 1 on the cloned hERG potassium channel expressed in the HEK-293 cell line was also investigated. […] The percent inhibition at 30 μM was 19%.

[5] = Nonclinical pharmacokinetics in rats; format: in vivo
Text: (§1) The systemic clearance of Compound 1 was low and the volume of distribution was high in rats and monkeys. […] Notable sex differences in PK were not observed in either species. Compound 1 had good oral bioavailability (≥50%) in rats and monkeys.

[6] = Nonclinical pharmacokinetics in monkeys; format: in vivo
Text: as §1

[7] = target: T2, CYP2C9 (Homo sapiens, UniProt P11712); assay: CYP inhibition in human liver microsomes, CYP2C9; format: in vitro ADME
T2 construct: In human liver microsomes; from tissue; host or cells: human liver microsomes

[8] = target: T3, CYP2A6 (Homo sapiens, UniProt P11509); assay: CYP inhibition in human liver microsomes, CYP2A6; format: in vitro ADME
T3 construct: In human liver microsomes; from tissue; host or cells: human liver microsomes

[9] = target: T4, CYP2C19 (Homo sapiens, UniProt P33261); assay: CYP inhibition in human liver microsomes, CYP2C19; format: in vitro ADME
T4 construct: In human liver microsomes; from tissue; host or cells: human liver microsomes

[10] = target: T5, CYP2E1 (Homo sapiens, UniProt P05181); assay: CYP inhibition in human liver microsomes, CYP2E1; format: in vitro ADME
T5 construct: In human liver microsomes; from tissue; host or cells: human liver microsomes

[11] = test system: CYP3A4; assay: CYP induction in human hepatocyte culture, CYP3A4 mRNA; format: in vitro ADME; conditions: up to 50 μM for three consecutive days
[12] = test system: Escherichia coli strain WP2 uvrA; assay: Bacterial reverse mutation test, Escherichia coli; format: cell-based
Description: Compound 1 was tested in Salmonella typhimurium strains (TA1535, TA1537, TA98, TA100) and Escherichia coli strain WP2 uvrA at a range of concentrations up to 5000 μg/plate (the standard limit concentration for this assay), in the presence and absence of a supplemented rat liver fraction (S9 mix), using the plate incorporation version of the bacterial reverse mutation test. Dimethyl sulfoxide (DMSO) was used as the solvent.
The mean revertant colony counts for the negative controls were within the laboratory historical control range. Bacteria were also incubated with standard positive controls, and the response of the various bacterial strains to these agents confirmed the sensitivity of the test system and the activity of the S9 mix. Therefore, the results from both the negative and positive controls confirmed the validity of the assay.
No substantial increases in revertant colony numbers were obtained with any of the tester strains, following exposure to Compound 1 at any concentration, in either the presence or absence of S9 mix. Therefore, Compound 1 was considered to be negative for the induction of mutagenicity in this in vitro assay.

[13] = test system: human peripheral blood (PB) lymphocytes; assay: In vitro mammalian cell micronucleus test
Description: Compound 1 was tested in the in vitro mammalian cell micronucleus test in human peripheral blood (PB) lymphocytes in the presence and absence of a metabolic activation system, Aroclor-induced rat liver fraction (S9), for 4 hours, and in the absence of S9 for 24 hours. The highest concentration tested was 481 μg/mL. Dimethyl sulfoxide (DMSO) was used as the solvent. […] In addition, 2 lower concentrations with appropriate concentration and cytotoxicity spacing were chosen for micronucleus scoring in each regime.

T2 sequence (P11712 whole entry): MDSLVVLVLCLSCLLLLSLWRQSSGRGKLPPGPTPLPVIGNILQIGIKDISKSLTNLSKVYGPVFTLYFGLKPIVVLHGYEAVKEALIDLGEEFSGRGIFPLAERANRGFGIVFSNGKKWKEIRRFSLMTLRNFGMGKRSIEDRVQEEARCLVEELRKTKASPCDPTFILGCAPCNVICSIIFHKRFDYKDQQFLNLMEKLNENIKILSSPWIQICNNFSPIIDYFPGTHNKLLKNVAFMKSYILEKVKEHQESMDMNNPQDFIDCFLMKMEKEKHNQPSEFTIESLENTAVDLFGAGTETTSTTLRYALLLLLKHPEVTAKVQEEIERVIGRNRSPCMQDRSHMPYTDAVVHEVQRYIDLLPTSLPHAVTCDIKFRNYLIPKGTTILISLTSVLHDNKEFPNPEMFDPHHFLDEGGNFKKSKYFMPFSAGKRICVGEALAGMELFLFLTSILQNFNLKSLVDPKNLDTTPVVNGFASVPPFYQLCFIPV
T3 sequence (P11509 whole entry): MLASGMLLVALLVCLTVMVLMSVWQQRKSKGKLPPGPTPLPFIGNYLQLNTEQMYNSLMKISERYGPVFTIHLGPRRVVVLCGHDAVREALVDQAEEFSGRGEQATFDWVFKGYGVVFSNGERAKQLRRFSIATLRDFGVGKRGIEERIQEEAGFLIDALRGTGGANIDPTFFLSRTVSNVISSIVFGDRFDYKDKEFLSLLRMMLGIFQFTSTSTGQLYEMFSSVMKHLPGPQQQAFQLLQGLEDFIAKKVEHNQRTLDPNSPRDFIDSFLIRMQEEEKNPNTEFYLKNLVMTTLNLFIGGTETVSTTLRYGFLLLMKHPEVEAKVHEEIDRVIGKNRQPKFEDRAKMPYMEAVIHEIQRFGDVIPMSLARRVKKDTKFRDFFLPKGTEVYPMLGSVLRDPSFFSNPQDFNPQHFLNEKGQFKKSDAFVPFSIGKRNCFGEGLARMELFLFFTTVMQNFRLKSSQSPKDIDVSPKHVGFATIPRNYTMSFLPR
T4 sequence (P33261 whole entry): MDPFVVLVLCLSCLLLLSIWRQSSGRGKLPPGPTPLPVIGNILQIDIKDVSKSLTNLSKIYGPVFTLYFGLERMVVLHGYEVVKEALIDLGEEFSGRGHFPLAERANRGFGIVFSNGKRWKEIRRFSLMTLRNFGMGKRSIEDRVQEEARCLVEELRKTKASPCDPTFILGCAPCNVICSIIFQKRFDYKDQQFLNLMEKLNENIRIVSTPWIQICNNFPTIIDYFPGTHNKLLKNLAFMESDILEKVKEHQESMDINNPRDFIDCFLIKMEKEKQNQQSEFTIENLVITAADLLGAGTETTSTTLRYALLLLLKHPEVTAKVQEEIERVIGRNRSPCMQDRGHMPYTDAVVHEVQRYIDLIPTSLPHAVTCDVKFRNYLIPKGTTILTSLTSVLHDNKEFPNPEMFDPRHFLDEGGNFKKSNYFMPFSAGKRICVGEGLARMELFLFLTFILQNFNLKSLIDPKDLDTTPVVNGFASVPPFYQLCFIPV
T1 sequence (Q12809 whole entry): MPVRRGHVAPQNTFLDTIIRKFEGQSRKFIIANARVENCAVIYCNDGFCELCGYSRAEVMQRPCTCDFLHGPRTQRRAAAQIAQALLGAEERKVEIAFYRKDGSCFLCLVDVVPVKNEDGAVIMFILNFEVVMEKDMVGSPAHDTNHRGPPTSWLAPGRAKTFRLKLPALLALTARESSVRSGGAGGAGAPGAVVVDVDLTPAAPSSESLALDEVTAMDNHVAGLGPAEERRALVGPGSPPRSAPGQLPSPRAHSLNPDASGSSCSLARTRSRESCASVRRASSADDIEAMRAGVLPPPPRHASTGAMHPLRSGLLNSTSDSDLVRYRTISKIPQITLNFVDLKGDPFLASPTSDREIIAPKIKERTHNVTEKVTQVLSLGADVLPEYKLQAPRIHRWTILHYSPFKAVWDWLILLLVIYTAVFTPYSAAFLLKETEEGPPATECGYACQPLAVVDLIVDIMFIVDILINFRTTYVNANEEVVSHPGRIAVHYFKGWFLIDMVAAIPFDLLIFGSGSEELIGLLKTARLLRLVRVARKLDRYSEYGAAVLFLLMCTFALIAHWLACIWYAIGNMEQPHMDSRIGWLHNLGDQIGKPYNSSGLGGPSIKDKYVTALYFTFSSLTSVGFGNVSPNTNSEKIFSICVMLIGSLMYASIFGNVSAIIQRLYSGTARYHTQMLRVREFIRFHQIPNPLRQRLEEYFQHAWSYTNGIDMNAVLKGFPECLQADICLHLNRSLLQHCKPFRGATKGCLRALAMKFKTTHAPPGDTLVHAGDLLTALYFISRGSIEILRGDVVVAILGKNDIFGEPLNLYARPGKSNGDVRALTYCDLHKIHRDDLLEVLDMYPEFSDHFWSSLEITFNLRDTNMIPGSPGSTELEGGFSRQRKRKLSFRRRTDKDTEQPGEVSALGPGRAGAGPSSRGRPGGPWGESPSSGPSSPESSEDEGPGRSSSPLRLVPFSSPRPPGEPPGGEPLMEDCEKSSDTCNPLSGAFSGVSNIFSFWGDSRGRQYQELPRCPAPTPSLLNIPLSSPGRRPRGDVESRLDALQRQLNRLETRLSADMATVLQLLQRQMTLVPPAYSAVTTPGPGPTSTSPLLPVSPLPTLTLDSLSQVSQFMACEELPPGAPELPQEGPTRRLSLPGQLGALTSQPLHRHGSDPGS
T5 sequence (P05181 whole entry): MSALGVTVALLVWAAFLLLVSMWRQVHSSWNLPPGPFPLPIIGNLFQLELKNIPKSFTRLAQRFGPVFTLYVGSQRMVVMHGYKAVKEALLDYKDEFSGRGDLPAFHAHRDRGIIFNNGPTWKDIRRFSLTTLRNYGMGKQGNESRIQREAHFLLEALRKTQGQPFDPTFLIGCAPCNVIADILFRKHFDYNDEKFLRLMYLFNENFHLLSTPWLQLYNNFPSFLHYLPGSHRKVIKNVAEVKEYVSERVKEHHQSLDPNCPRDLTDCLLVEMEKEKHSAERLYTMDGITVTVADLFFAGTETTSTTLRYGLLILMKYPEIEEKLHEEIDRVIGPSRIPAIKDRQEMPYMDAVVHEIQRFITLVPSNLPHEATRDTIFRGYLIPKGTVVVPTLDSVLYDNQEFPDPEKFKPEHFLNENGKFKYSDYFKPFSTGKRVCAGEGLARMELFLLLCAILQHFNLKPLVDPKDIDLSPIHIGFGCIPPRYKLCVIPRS

O=C1CC[C@H](N2Cc3cc(C(=O)N[C@H](c4ncccc4Cl)C(F)(F)F)ccc3C2=O)C(=O)N1 [Compound 1, N-((R)-1-(3-chloropyridin-2-yl)-2,2,2-trifluoroethyl)-2-((S)-2,6-dioxopiperidin-3-yl)-1-oxoisoindoline-5-carboxamide]
total blast numbers ([1]; 5 days in liquid culture, all TP53 WT AML samples tested, vs vehicle control): deeply decreased
IC50 ([1]; liquid culture, apoptosis and cell cycle arrest, all samples): nanomolar range
duration of sustained CK1α degradation ([2]; AML blasts in culture, FACS): up to 5 days
cellular outcome ([2]; leukemic cells): apoptotic outcome
duration of sustained p53 stabilization ([2]; leukemic cells): up to 48 hours
effects on heart rate, PR, QRS, QT, and QTc intervals [3]: no Compound 1 related effects
precipitation in the assay ([4]; concentrations up to 30 μM): did not precipitate
pIC50 ([4]; hERG, IonWorks Barracuda patch clamp): < 4.52
accumulation following multiple doses [5]: No accumulation
systemic clearance [5]: low
volume of distribution [5]: high
bioavailability ([5]; rat, in vivo, po): ≥ 50%
half-life ([5]; rat, in vivo, read-out: terminal half-life): 1.5 to 1.7 h
accumulation following multiple doses [6]: No accumulation
systemic clearance [6]: low
volume of distribution [6]: high
bioavailability ([6]; monkey, in vivo, po): ≥ 50%
half-life ([6]; monkey, in vivo, read-out: terminal half-life): 2.3 to 4.4 h
time-dependent inhibition ([7]; CYP2C9, 30-minute preincubation with NADPH): not a time-dependent inhibition
pIC50 ([7]; human liver microsomes, CYP2C9): < 4.52
time-dependent inhibition ([8]; CYP2A6, 30-minute preincubation with NADPH): not a time-dependent inhibition
inhibitory effect ([8]; human liver microsomes, CYP2A6): ≤ 25%
time-dependent inhibition ([9]; CYP2C19, 30-minute preincubation with NADPH): not a time-dependent inhibition
inhibitory effect ([9]; human liver microsomes, CYP2C19): ≤ 25%
time-dependent inhibition ([10]; CYP2E1, 30-minute preincubation with NADPH): not a time-dependent inhibition
inhibitory effect ([10]; human liver microsomes, CYP2E1): ≤ 25%
mRNA expression of CYP3A4 [11]: no dose-dependent increases
toxicity to the bacteria ([12]; highest concentrations tested): non-toxic
induction of mutagenicity (revertant colony numbers) ([12]; up to 5000 μg/plate, presence and absence of S9 mix): negative
proportion of micronucleated binucleate cells (MBC) ([13]; 4 hours with and without S9, 24 hours without S9, compared with negative controls): did not cause any statistically significant increases
cytotoxicity based on CBPI ([13]; human, 24 h, 120 μg/mL): approximately 55%
